Data as given in patent US20090305890A1, “METHOD OF CONTROLLING PLANTS” (SYNGENTA LIMITED, priority 2005, published 2009).

Key:
Format in all cases: in vivo
[1] = tested on: paraquat susceptible ryegrass (Lolium rigidum); test: Glasshouse study, visual percentage control, Example 2; conditions: Paraquat Susceptible Population, 28 days after applying
Method: (§1) A glasshouse study was conducted with two biotypes of ryegrass (Lolium rigidum), one paraquat resistant and the other paraquat susceptible. The plants (3 leaf stage) were planted in pots at a density of approximately 14,000 plants/m^2 to simulate field infestation levels. The treatments were based on commercial formulations of paraquat and glufosinate were diluted in water including the adjuvants AMS (5%) and Agral 90 (0.25%). The treatments were applied to the plants in a spray volume equivalent to 400 lts/ha. Each treatment was replicated three times. The effectiveness of the treatments in controlling the plants was assessed visually 28 days after applying the herbicide. The assessment was made as a percentage control −0% representing no damage and 100% representing death of all the plants.

[2] = tested on: paraquat resistant ryegrass (Lolium rigidum); test: as above; conditions: Paraquat Resistant Population, 28 days after applying
Method: as §1

[3] = tested on: paraquat resistant Lolium biotype RL 2; test: Greenhouse visual assessment of percentage control, Example 1; conditions: 14 days after applying
Method: (§2) Aqueous herbicidal compositions comprising water and paraquat alone at various application rates, glufosinate ammonium alone at various application rates and compositions containing water and combinations of these two herbicides were applied over certain paraquat resistant plants. Ammonium sulphate was included in all of the compositions at a concentration of 1% w/v. The effectiveness of the composition in controlling the plants was assessed visually 14 days after applying the herbicide. The assessment was made as a percentage control −0% representing no damage and 100% representing death of all the plants. The plants used were two paraquat resistant Lolium biotypes (referred to as RL 1 and RL 2, collected in South Africa). The plants were grown in a greenhouse to the two-three true leaves stage before the herbicide was applied. Three replicates of each treatment were carried out.
(§3) The results were analysed using the Colby formula which generates an expected level of control from the results obtained by using the individual components alone. This was compared with the actual level of control. The Colby formula predicts that the expected percentage level of control E for a particular combination of components is obtained as follows, in which P1 and P2 are the levels of control obtained by using the components alone
(§4) The figures given in the Synergy column in the table below are the difference between the predicted level of control and the actual level of control. A figure of zero means that the actual result is as predicted by the Colby equation. Any number above zero represents evidence of synergy. Numbers below zero may represent antagonism.

[4] = tested on: paraquat resistant Lolium biotype RL 1; test: as above; conditions: 14 days after applying
Method: as §2, §3, §4

[5] = tested on: paraquat resistant ryegrass (Lolium rigidum); test: Glasshouse test of sequential (split) application, visual percentage control, Example 3; conditions: 28 days after the initial application
Method: A glasshouse test was conducted to examine the effect of applying the products sequentially (ie. in a split application), using paraquat resistant ryegrass (Lolium rigidum) plants. The plants were planted in pots and at the time of the initial application they were at the 4½ leaf stage. The treatments were based on commercial formulations of paraquat and glufosinate were diluted in water including the adjuvants AMS (5%) and Agral 90 (0.25%). The treatments' were applied to the plants in a spray volume equivalent to 400 lts/ha. Each treatment was replicated 3 times. The effectiveness of the treatments in controlling the plants was assessed visually 28 days after the initial application date. The assessment was made as a percentage control −0% representing no damage and 100% representing death of all the plants.

[6] = glufosinate ammonium 50 g/ha alone
[7] = glufosinate ammonium 100 g/ha alone
[8] = glufosinate ammonium 200 g/ha alone
[9] = glufosinate ammonium 400 g/ha alone
[10] = glufosinate ammonium 600 g/ha alone

Compound: CP(=O)(O)CCC(N)C(=O)O (racemic) [glufosinate ammonium, ammonium 4-[hydrox(methyl)phosphinoyl]-DL-homoalaninate]
- Percentage Control ([1]; Glufosinate 300 g ai/ha): 85%
- Percentage Control ([2]; Glufosinate 300 g ai/ha): 44%
- Average % control of RL 2 [3, 6]: 0%
- Average % control of RL 2 [3, 7]: 0%
- Average % control of RL 2 [3, 8]: 2%
- Average % control of RL 2 [3, 9]: 33%
- Average % control of RL 2 [3, 10]: 89%
- Average % control of RL 1 [4, 6]: 0%
- Average % control of RL 1 [4, 7]: 0%
- Average % control of RL 1 [4, 8]: 3%
- Average % control of RL 1 [4, 9]: 2%
- Average % control of RL 1 [4, 10]: 78%
- % Control ([5]; 150 g ai/ha): 0%
- % Control ([5]; 200 g a/ha): 33%
- % Control ([5]; 300 g ai/ha): 83%

Compound: C[n+]1ccc(-c2cc[n+](C)cc2)cc1 [Paraquat, 1,1′-dimethyl-4,4′-bipyridylium cation]
- Percentage Control ([1]; Paraquat 600 g ai/ha): 100%
- Percentage Control ([2]; Paraquat 600 g ai/ha): 29%
- Average % control of RL 2 ([3]; paraquat 10 g/ha alone): 0%
- Average % control of RL 2 ([3]; paraquat 20 g/ha alone): 0%
- Average % control of RL 2 ([3]; paraquat 60 g/ha alone): 0%
- Average % control of RL 2 ([3]; paraquat 80 g/ha alone): 0%
- Average % control of RL 2 ([3]; paraquat 400 g/ha alone): 0%
- Average % control of RL 2 ([3]; paraquat 1200 g/ha alone): 7%
- Average % control of RL 2 ([3]; paraquat 2000 g/ha alone): 3%
- Average % control of RL 2 ([3]; paraquat 4000 g/ha alone): 42%
- Average % control of RL 1 ([4]; paraquat 10 g/ha alone): 0%
- Average % control of RL 1 ([4]; paraquat 20 g/ha alone): 0%
- Average % control of RL 1 ([4]; paraquat 60 g/ha alone): 0%
- Average % control of RL 1 ([4]; paraquat 80 g/ha alone): 17%
- Average % control of RL 1 ([4]; paraquat 400 g/ha alone): 33%
- Average % control of RL 1 ([4]; paraquat 1200 g/ha alone): 33%
- Average % control of RL 1 ([4]; paraquat 2000 g/ha alone): 98%
- Average % control of RL 1 ([4]; paraquat 4000 g/ha alone): 100%
- % Control ([5]; 600 g ai/ha): 58%
